Legend:
C2C12 cells [1] = experiment: Change in muscle-related gene expression (qRT-PCR) upon treatment with hydrangenol or Hydrangea extract; format: cell-based; conditions: C2C12 cells differentiated 5 days, 1 hour or 24 hours
Procedure: Each sample obtained in Examples 1 and 2 was analyzed in regards to its effects on the change in gene expression involved in the gain of muscle mass and the mitochondrial biogenesis and electron transport chain (ETC). For this experiment, C2C12 cells were differentiated for 5 days and then treated with the sample of Example 1 (25 μg/ml) or Example 2 (2.5 μg/ml) for 1 hour or 24 hours, respectively. Then, Trizol was used to extract RNA from the cell, and cDNA was synthesized from the RNA (cDNA synthesis kit, Bio-Rad). Finally, a realtime PCR (qRT-PCR) was performed (Viia7, […] Biosystems) using the oligomers of Table 1 as primers.
In the experimental example, the extract of Hydrangea serrata is indicated as S; the extract of Hydrangea macrophylla as M; and hydrangenol as H. “0” means a control that was treated with vehicle.

C2C12 cells [2] = experiment: Change in muscle-related protein expression (primary antibodies) upon treatment with hydrangenol or Hydrangea extract; format: cell-based; conditions: C2C12 cells differentiated 5 days; Example 1 25 ug/ml or Example 2 2.5 ug/ml; 1 hour or 24 hours; FIG. 9
Procedure: Each sample obtained in Examples 1 and 2 was analyzed in regards to its effects on the change in protein expression involved in the prevention of muscle diseases, the improvement of muscle functions, and the promotion of motor performance. For this experiment, C2C12 cells were differentiated for 5 days and then treated with the sample of Example 1 (25 ug/ml) or Example 2 (2.5 ug/ml) for 1 hour or 24 hours, respectively. Then, the cell was broken down with a modified LIPA buffer, and 20 ug of each sample was used for analysis. The primary antibodies of p-ERK (9101S: Cell Signaling), p-mTOR (ab109268, Abcam), mTOR (2972, Cell Signaling), p-p70S6K (9234, Cell Signaling), p-AMPK (4186, Cell Signaling), PGC1a (ab54481, Abcam), and ß-actin (A5316, Sigma) were used for the analysis.

[3] = Example 1 25 μg/ml or Example 2 2.5 μg/ml, FIG. 8

O=C1OC(c2ccc(O)cc2)Cc2cccc(O)c21 (centres unmarked) [Example 2, 8-hydroxy-3-(4-hydroxyphenyl)-3,4-dihydroisochromen-1-one]
expression of Myogenin (C2C12 cells [1]; [3]): promoted | gene (mRNA) expression of PPARα (C2C12 cells [1]; [3]): increase | gene expression of MyoD (C2C12 cells [1]; [3]): promoted | gene expression of PGC1α (C2C12 cells [1]; [3]): activate | gene expression of PPARδ (C2C12 cells [1]; [3]): activate | gene expression of SIRT1 (C2C12 cells [1]; [3]): increased | amount of expression for most of genes shown in FIG. 8 (C2C12 cells [1]; Example 2 2.5 μg/ml): regulated | activity of p-AMPK (C2C12 cells [2]): increased | phosphorylation of ERK (MAPK) (C2C12 cells [2]): through the phosphorylation of ERK | phosphorylation of mTOR (C2C12 cells [2]): activated | protein expression of PGC1α (C2C12 cells [2]): increased

Reference: patent US20240307348A1, “COMPOSITION FOR PREVENTING AND TREATING MUSCLE DISEASE, IMPROVING MUSCLE FUNCTION OR ENHANCING MOTOR PERFORMANCE COMPRISING HYDRANGENOL OR HYDRANGEA EXTRACT AS ACTIVE INGREDIENT” (COSMAXBIO CO., LTD., priority 2018, published 2024)
